Data: ChEMBL document CHEMBL1201862, “PubChem BioAssay data set” (2004)
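Assay format: 96-well plates, 48-hour exposure. At the GI50, growth is halved.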 Calls of active or inactive are those of the source. Rule as the data show it: active = GI50 up to about 1.1 µM and inactive = higher.

Columns and labels:
Assay in all cases: growth of human tumour cells (NCI), 48 h
[1] = test system: EKVX
[2] = test system: COLO 205
[3] = test system: M14
[4] = test system: BT-549
[5] = test system: HCT-15
[6] = test system: T47D
[7] = test system: HOP-92
[8] = test system: SF-295
[9] = test system: SK-OV-3
[10] = test system: HOP-62
[11] = test system: OVCAR-8
[12] = test system: SF-539
[13] = test system: NCI-H23
[14] = test system: U-251
[15] = test system: HL-60
[16] = test system: RXF 393
[17] = test system: NCI-H460
[18] = test system: MCF7
[19] = test system: CCRF-CEM

For `c1ccc(-c2cc(-c3cc(-c4ccccn4)[nH]n3)n[nH]2)nc1`, the GI50 [1] was 25.4 µM (inactive), the GI50 [2] was > 100 µM (inactive) and the GI50 [3] was 30.8 µM (inactive). For the same compound, the GI50 [4] was > 100 µM (inactive), the GI50 [5] was 55.7 µM and the GI50 [6] was 80.4 µM (inactive). For the same compound, the GI50 [7] was 77.8 µM (inactive), the GI50 [8] was 85.5 µM (inactive) and the GI50 [9] was > 100 µM (inactive). For the same compound, the GI50 [10] was 92.9 µM (inactive), the GI50 [11] was > 100 µM (inactive) and the GI50 [12] was > 100 µM (inactive). For the same compound, the GI50 [13] was 95.5 µM (inactive), the GI50 [14] was > 100 µM (inactive) and the GI50 [15] was 84.3 µM (inactive). For the same compound, the GI50 [16] was > 100 µM (inactive), the GI50 [17] was 35.6 µM (inactive) and the GI50 [18] was > 100 µM (inactive).

With `CC1=NN(C(=O)CC(=O)Nc2ccc(Cl)cc2)C(=O)C1/N=N\c1ccc(S(=O)(=O)c2ccc(/N=N/C3C(=O)N(C(=O)CC(=O)Nc4ccc(Cl)cc4)N=C3C)cc2)cc1` (stereo unspecified) the GI50 [1] was > 100 µM (inactive), the GI50 [2] was > 100 µM (inactive) and the GI50 [3] was 65.2 µM (inactive). For the same compound, the GI50 [4] was > 100 µM (inactive), the GI50 [5] was 60.8 µM and the GI50 [6] was > 100 µM (inactive). The GI50 [19] was > 100 µM (inactive), the GI50 [7] was > 100 µM (inactive) and the GI50 [8] was > 100 µM (inactive). The GI50 [9] was > 100 µM (inactive), the GI50 [10] was 54.5 µM (inactive) and the GI50 [11] was > 100 µM (inactive). For the same compound, the GI50 [12] was > 100 µM (inactive), the GI50 [13] was > 100 µM (inactive) and the GI50 [14] was 22.4 µM (inactive). The GI50 [15] was > 100 µM (inactive), the GI50 [16] was 41.5 µM (inactive) and the GI50 [17] was > 100 µM (inactive). For the same compound, the GI50 [18] was > 100 µM (inactive).

For `CC1=CC(C)(C)NN1C1=NS(=O)(=O)c2ccccc2N1C`, the GI50 [1] was > 100 µM (inactive), the GI50 [2] was > 100 µM (inactive) and the GI50 [3] was > 100 µM (inactive). For the same compound, the GI50 [4] was > 100 µM (inactive), the GI50 [5] was 89.9 µM and the GI50 [6] was > 100 µM (inactive). The GI50 [19] was 98.9 µM (inactive), the GI50 [7] was > 100 µM (inactive) and the GI50 [8] was > 100 µM (inactive). For the same compound, the GI50 [9] was > 100 µM (inactive), the GI50 [10] was > 100 µM (inactive) and the GI50 [11] was > 100 µM (inactive). The GI50 [12] was > 100 µM (inactive), the GI50 [13] was > 100 µM (inactive) and the GI50 [14] was > 100 µM (inactive). The GI50 [15] was > 100 µM (inactive), the GI50 [16] was > 100 µM (inactive) and the GI50 [17] was > 100 µM (inactive). For the same compound, the GI50 [18] was > 100 µM (inactive).

With `CNC1C(OC2C(OC3C(O)C(O)C(O)C(O)C3O)OC(C)C2(O)CO)OC(CO)C(O)C1O.N=C(N)N.NC(=O)O` (stereo unspecified) the GI50 [1] was > 100 µM (inactive), the GI50 [2] was > 100 µM (inactive) and the GI50 [3] was > 100 µM (inactive). The GI50 [4] was > 100 µM (inactive), the GI50 [5] was > 100 µM and the GI50 [6] was > 100 µM (inactive). The GI50 [19] was > 100 µM (inactive), the GI50 [7] was > 100 µM (inactive) and the GI50 [8] was > 100 µM (inactive). For the same compound, the GI50 [9] was > 100 µM (inactive), the GI50 [10] was > 100 µM (inactive) and the GI50 [11] was > 100 µM (inactive). The GI50 [12] was > 100 µM (inactive), the GI50 [13] was > 100 µM (inactive) and the GI50 [14] was > 100 µM (inactive). The GI50 [15] was > 100 µM (inactive), the GI50 [16] was > 100 µM (inactive) and the GI50 [17] was > 100 µM (inactive). For the same compound, the GI50 [18] was > 100 µM (inactive).

`C=C1CC[C@@H]2[C@](C)(COC(=O)CCC(=O)O)CCC[C@@]2(C)[C@@H]1CCC1=CC(=O)OC1` was tested, and the GI50 [1] was > 100 µM (inactive), the GI50 [2] was > 100 µM (inactive) and the GI50 [3] was > 100 µM (inactive). For the same compound, the GI50 [4] was > 100 µM (inactive), the GI50 [5] was > 100 µM and the GI50 [6] was > 100 µM (inactive). For the same compound, the GI50 [19] was > 100 µM (inactive), the GI50 [7] was > 100 µM (inactive) and the GI50 [8] was > 100 µM (inactive). The GI50 [9] was > 100 µM (inactive), the GI50 [10] was > 100 µM (inactive) and the GI50 [11] was > 100 µM (inactive). The GI50 [12] was > 100 µM (inactive), the GI50 [13] was > 100 µM (inactive) and the GI50 [14] was > 100 µM (inactive). For the same compound, the GI50 [15] was > 100 µM (inactive), the GI50 [16] was > 100 µM (inactive) and the GI50 [18] was > 100 µM (inactive).

In the case of `O=C(O)CSCc1cccc2ccccc12`, the GI50 [1] is reported as 19.4 µM (inactive), the GI50 [2] is reported as > 100 µM (inactive) and the GI50 [3] is reported as > 100 µM (inactive). For the same compound, the GI50 [4] was > 100 µM (inactive), the GI50 [5] was > 100 µM and the GI50 [6] was > 100 µM (inactive). The GI50 [19] was > 100 µM (inactive), the GI50 [7] was > 100 µM (inactive) and the GI50 [8] was > 100 µM (inactive). The GI50 [9] was > 100 µM (inactive), the GI50 [10] was > 100 µM (inactive) and the GI50 [11] was > 100 µM (inactive). The GI50 [12] was > 100 µM (inactive), the GI50 [13] was > 100 µM (inactive) and the GI50 [14] was > 100 µM (inactive). The GI50 [15] was > 100 µM (inactive), the GI50 [16] was > 100 µM (inactive) and the GI50 [17] was > 100 µM (inactive). The GI50 [18] was > 100 µM (inactive).

In the case of `Oc1ccc(Cl)cc1-c1nc(S)nc(-c2ccccc2)c1Cl`, the GI50 [2] is reported as > 100 µM (inactive), the GI50 [3] is reported as > 100 µM (inactive) and the GI50 [4] is reported as 44.7 µM (inactive). For the same compound, the GI50 [5] was > 100 µM, the GI50 [6] was > 100 µM (inactive) and the GI50 [19] was > 100 µM (inactive). For the same compound, the GI50 [7] was 69.8 µM (inactive), the GI50 [8] was 28.6 µM (inactive) and the GI50 [9] was > 96.4 µM (inactive). The GI50 [10] was 31.1 µM (inactive), the GI50 [11] was > 100 µM (inactive) and the GI50 [12] was > 10 µM (inactive). The GI50 [13] was > 100 µM (inactive), the GI50 [14] was 43.2 µM (inactive) and the GI50 [15] was > 100 µM (inactive). The GI50 [16] was 45 µM (inactive), the GI50 [17] was > 100 µM (inactive) and the GI50 [18] was > 100 µM (inactive).

For `CCCCc1ccc(Nc2nc3ncnc-3c[nH]2)cc1`, the GI50 [1] was 25.8 µM (inactive), the GI50 [2] was 16.7 µM (inactive) and the GI50 [3] was 18.6 µM (inactive). For the same compound, the GI50 [4] was 25.7 µM (inactive), the GI50 [5] was 17.5 µM and the GI50 [6] was 19.1 µM (inactive). For the same compound, the GI50 [19] was 7.94 µM (inactive), the GI50 [7] was 21.8 µM (inactive) and the GI50 [8] was 18.2 µM (inactive). For the same compound, the GI50 [9] was 18.4 µM (inactive), the GI50 [10] was 17.7 µM (inactive) and the GI50 [11] was 17.8 µM (inactive). The GI50 [12] was 26.7 µM (inactive), the GI50 [13] was 18.2 µM (inactive) and the GI50 [14] was 22.1 µM (inactive). The GI50 [15] was 38.5 µM (inactive), the GI50 [16] was 18.5 µM (inactive) and the GI50 [18] was 29.6 µM (inactive).

In the case of `c1ccc(-c2c(-c3cccs3)[nH]c(-c3cccs3)c2-c2ccccn2)nc1`, the GI50 [1] is reported as 22.9 µM (inactive), the GI50 [2] is reported as 15 µM (inactive) and the GI50 [3] is reported as 20.2 µM (inactive). The GI50 [4] was 22.2 µM (inactive), the GI50 [5] was 15.1 µM and the GI50 [6] was 18.2 µM (inactive). The GI50 [19] was 8.24 µM (inactive), the GI50 [7] was 25.8 µM (inactive) and the GI50 [8] was 20.2 µM (inactive). For the same compound, the GI50 [9] was 21.9 µM (inactive), the GI50 [11] was 26.4 µM (inactive) and the GI50 [12] was 20.4 µM (inactive). For the same compound, the GI50 [13] was 26.2 µM (inactive), the GI50 [14] was 20.2 µM (inactive) and the GI50 [15] was 26.5 µM (inactive). For the same compound, the GI50 [16] was 20.5 µM (inactive), the GI50 [17] was 21.3 µM (inactive) and the GI50 [18] was > 10 µM (inactive).

`Cc1ccc(C2=CC(=O)/C(=C\C(=O)c3ccc(Cl)cc3)O2)cc1` was tested, and the GI50 [1] was 70 µM (inactive), the GI50 [2] was 13.3 µM (inactive) and the GI50 [3] was 18.3 µM (inactive). For the same compound, the GI50 [4] was 1.86 µM (inactive), the GI50 [5] was 17.7 µM and the GI50 [6] was 7.18 µM (inactive). For the same compound, the GI50 [19] was 3.19 µM (inactive), the GI50 [7] was 14.1 µM (inactive) and the GI50 [9] was 6.43 µM (inactive). The GI50 [10] was 97.9 µM (inactive), the GI50 [11] was 3.13 µM (inactive) and the GI50 [12] was 21.2 µM (inactive). For the same compound, the GI50 [13] was 24.2 µM (inactive), the GI50 [14] was 17.7 µM (inactive) and the GI50 [15] was 0.902 µM (active). For the same compound, the GI50 [16] was 4.6 µM (inactive), the GI50 [17] was > 10 µM (inactive) and the GI50 [18] was 10.6 µM (inactive).

`CCOc1cc2c(c(OCC)c1O)CC[C@@H]1[C@@H]2CC[C@]2(C)[C@@H](O)CC[C@@H]12` was tested, and the GI50 [1] was 6.1 µM (inactive), the GI50 [2] was 20.5 µM (inactive) and the GI50 [3] was 3.05 µM (inactive). For the same compound, the GI50 [4] was 0.418 µM (active), the GI50 [5] was 0.289 µM and the GI50 [6] was 2.33 µM (inactive). The GI50 [19] was 1.7 µM (inactive), the GI50 [7] was 18.7 µM (inactive) and the GI50 [8] was 0.693 µM (active). For the same compound, the GI50 [9] was 4.75 µM (inactive), the GI50 [10] was 1.32 µM (inactive) and the GI50 [11] was 7.59 µM (inactive). The GI50 [12] was 1.48 µM (inactive), the GI50 [13] was 4.2 µM (inactive) and the GI50 [15] was 0.297 µM (active). The GI50 [16] was 2.21 µM (inactive) and the GI50 [18] was 0.505 µM (active).
